Earlier results as cited in patent US20160114057A1, “MODULAR PROTEIN DRUG CONJUGATE THERAPEUTIC” (ZYMEWORKS INC., priority 2013, published 2016).
Like-named read-outs stand apart in the source and are kept apart here. Where a SMILES comes first, the peptide text is derived from it. [ ]: non-standard residue; d: D form. Aoe = N[C@@H](CCCCCC(=O)[C@@H]1CO1)C(=O)O; Aib = CC(C)(N)C(=O)O

Key:
[1] = not given; remark: listed apart in the source
[2] = system: NCI tumor panel (60 cell line); conditions: NCI tumor panel; range over cell lines
[3] = not given; remark: listed apart in the source
[4] = not given; remark: listed apart in the source
[5] = system: CD33+ cells (HL-60, NOMO-1, and NKM-1); conditions: at 100 ng/mL
[6] = human, in vivo
tumors in animal models = conditions: tumor types as in Table 1
[7] = KB-31 (melanoma)
KB = conditions: KB
[8] = i.p. in mice
HT-29 (colon) = conditions: cell culture
[9] = system: A-549 (epidermoid carcinoma)
MEL-28 = conditions: cell culture
histone deacetylase = conditions: inhibits histone deacetylase

For `COc1c(O)c2c(c3cc(C(=O)N4CCc5c4c(O)c(OC)c4[nH]c(C(=O)N6CC7CC78C6=CC(=O)c6[nH]cc(C)c68)cc54)[nH]c13)CCN2C(C)=O` (stereo not shown) [Gilvusmycin], the IC50 (MKN28 (GI)) is listed as 0.75 MKN28 (GI); ng/mL, the IC50 (various tumor cell lines; P388, K562, A431, MKN28, read-out: IC50 (for all)) is listed as < 1 nM and the IC50 (K562 (CML)) is listed as 0.86 K562 (CML) ng/mL. The IC50 (P388) was 0.08 P388 ng/mL and the IC50 (A431 (EC)) was 0.72 A431 (EC) ng/mL.

For `C/C=C1\NC(=O)[C@H]2CSSCC/C=C/[C@H](CC(=O)N[C@H](C(C)C)C(=O)N2)OC(=O)[C@H](C(C)C)NC1=O` [FR-901228], the t1/2 (human) is listed as “t1/2 of 8 hrs”, the dose limiting toxicity ([1]; human) is listed as “(human) 18 mg/Kg;” and the IC50 [2] is listed as 0.56 to 4.1 nM. For the same compound, the “toxic dose (LD50)” value ([3]; ip) was 6.4 mg/kg, the “toxic dose (LD50)” value ([3]; iv) was 10 mg/kg and the “Toxicity (in words)” value [4] was “toxicity, lymphoid”.

In the case of gemtuzumab ozogamicin, the “killing of CD33+ cells (in words)” value [5] is given as “Kills CD33+ cells” and the “Toxicity (in words)” value [4] is given as “mild toxicity”.

For `CC[C@H](C)[C@@H]([C@@H](CC(=O)N1CCC[C@H]1[C@H](OC)[C@@H](C)C(=O)NCCc1ccccc1)OC)N(C)C(=O)[C@@H](NC(=O)[C@H](C(C)C)N(C)C)C(C)C` [soblidotin], the inhibition (various tumor cell lines; cell culture: colon, melanoma, M5076 tumors, P388, dose not reported) is given as 75-85% inhibition and the MTD ([1]; IV) is given as “MTD was 1.8 mg/Kg”.

In the case of `C/C(=C\c1csc(C)n1)[C@@H]1C[C@@H]2O[C@]2(C)CCC[C@H](C)[C@H](O)[C@@H](C)C(=O)C(C)(C)[C@@H](O)CC(=O)N1` [BMS-247550], the “clinical responses (in words)” value [6] is listed as “tumor (objective” and the “Toxicity (in words)” value [4] is listed as “sever toxicity”.

For Didemnin B, the t1/2 (in vivo) is listed as “cleared (t1/2 4.8 hrs”, the MTD ([1]; in vivo) is listed as 6.3 mg/Kg; toxicity and the “activity against multi-drug/drug resistant cell lines (in words)” value (MDR cell lines) is listed as “Not potent against”. For the same compound, the “Toxicity (in words)” value [4] was “cardiotoxicity;”.

In the case of `CCC1/C=C/C=C/CC(C)C(O)C(C)(O)C(=O)CC(O)C(C)C(O)C(C)C(O)C(C)/C=C/C(=O)OC2C(C)C(CC1)OC1(CCC(C)C(CC(C)O)O1)C2C` (stereo not shown) [BE-56384], the IC50 (P388) is listed as 0.1 P388 ng/mL, the IC50 (DLD-1) is listed as 34 DLD-1 ng/mL and the IC50 (MKM-45) is listed as 0.12 MKM-45 ng/mL. The IC50 (PC-13) was 0.12 PC-13 ng/mL and the IC50 (colon 26) was 0.29 colon 26 ng/mL.

For `C=CCNC1=C2C[C@@H](C)C[C@H](OC)[C@H](O)[C@@H](C)/C=C(\C)[C@H](OC(N)=O)[C@@H](OC)/C=C\C=C(/C)C(=O)NC(=CC1=O)C2=O` [Variant 17-AAG], the t1/2 (i.v.) is given as ~1.5 h and the “activity in animal models (in words)” value (tumors in animal models) is given as “models active”.

In the case of `C/C(=C\c1csc(C)n1)[C@@H]1C[C@@H]2O[C@]2(C)CCC[C@H](C)[C@H](O)[C@@H](C)C(=O)C(C)(C)[C@@H](O)CC(=O)O1` [Epothione B], the “activity in cell culture (in words)” value (various tumor cell lines) is given as “broad activity”, the t1/2 (in vivo) is given as 2.5 h and the IC50 (HCT-116) is given as 0.42 nM. The IC50 (MCF-7/ADR) was 2.92 nM, the IC50 [7] was 0.19 nM and the “clinical responses (in words)” value [6] was “partial”. The IC50 (MCF-7 (breast)) was 0.18 nM.

For `CC[C@@H]1/C=C/C=C/C[C@H](C)[C@@H](O)[C@](C)(O)C(=O)[C@H](C)[C@@H](O)[C@H](C)C(=O)[C@H](C)[C@@H](O)[C@H](C)/C=C/C(=O)O[C@H]2[C@@H](C)[C@@H](CC1)O[C@@]1(CC[C@@H](C)[C@@H](C[C@H](C)O)O1)[C@@H]2CC` [NK-1301129], the “Activity (IC50)” value (lung) is given as 8.5 ng/mL lung and the “Activity (IC50)” value (colon) is given as 25 ng/mL colon.

For Epothilone D, the “activity in cell culture (in words)” value (various tumor cell lines) is listed as “broad activity”, the t1/2 (in vivo) is listed as “t1/2 of 5-10 hrs” and the IC50 (HCT-116) is listed as 0.42 nM. For the same compound, the IC50 [7] was 0.19 nM and the “Toxicity (in words)” value [4] was “emesis and anemia;”.

For `C=C1C[C@@H]2CCO[C@H]3[C@@H]4C[C@H]5CC[C@H](CC(=O)C[C@@H]6[C@@H](OC)[C@@H](C[C@H](O)CO)O[C@H]6C[C@H]6O[C@@H](CC[C@@H]1O2)C[C@@H](C)C6=C)O[C@@H]5[C@@H]1OCC[C@@H]3O[C@H]41` [Halichondrin B analogs], the “activity in animal models (in words)” value (tumors in animal models) is given as “active (tumor”.

For `NC[C@H]1[C@H]2CN3C(=O)c4cccn4[C@H]4NC(N)=NC43[C@H]2[C@@]2(N=C(N)N[C@@H]2O)[C@H]1Cl` (stereo partly shown) [Palauamine], the IC50 (P388; cell culture) is listed as 0.1 P388 micrograms/mL, the IC50 (A549 (lung); cell culture, A549) is listed as 0.2 A549 (lung) micrograms/mL and the IC50 (KB; cell culture) is listed as 10 KB micrograms/mL. For the same compound, the LD50 [8] was “is 13 mg/Kg” and the IC50 (HT-29 (colon)) was 2 HT-29 (colon) micrograms/mL.

For `C/C(=C\c1csc(C)n1)[C@@H]1C[C@@H]2O[C@@H]2CCC[C@H](C)[C@H](O)[C@@H](C)C(=O)C(C)(C)[C@@H](O)CC(=O)O1` [Epothilone A], the IC50 (HCT-116) is given as 3.2 nM, the IC50 (MCF-7/ADR) is given as 27.1 nM and the IC50 [7] is given as 2.1 nM. The IC50 (MCF-7 (breast)) was 1.5 nM.

In the case of `C/C1=C\C(C)C(C)OC(=O)CC(c2ccc(O)cc2)NC(=O)C(Cc2c(Cl)[nH]c3ccccc23)N(C)C(=O)C(C)NC(=O)C(C)C1` (stereo not shown) [Chondramide D], the IC50 (U-937 (lymphoma)) is listed as 3 nM, the IC50 (A549 (lung); A549 (lung), read-out: Activity (IC50)) is listed as 14 nM and the IC50 (SK-OV-3 (ovary)) is listed as 5 nM. The IC50 [9] was 5 nM and the IC50 (A-498 (kidney)) was 15 nM.

In the case of `CN[C@H](C(=O)N[C@H](C(=O)N(C)[C@H](/C=C(\C)C(=O)O)C(C)C)C(C)(C)C)C(C)(C)c1c[nH]c2ccccc12` [Hemiasterlins A & B and analogs], the IC50 (P388) is given as 0.4 ng/mL P388 and the IC50 (MCF-7 (breast)) is given as 0.3 to 3 nM.

For `C=CC(C)(C)OC[C@H]1NC(=O)[C@H]([C@@H](C)OC(C)(C)C=C)NC(=O)C2CSC(N2)[C@@H](Cc2ccccc2)NC(=O)[C@@H]2CCCN2C(=O)C(C)NC(=O)[C@H]([C@@H](C)CC)NC1=O` (stereo partly shown) [Trunkamide A], the IC50 (P388; cell culture) is given as 0.5 P388; micrograms/mL, the IC50 (MEL-28) is given as 1.0 MEL-28 micrograms/mL and the IC50 (A549 (lung); cell culture, A549) is given as 0.5 A549; micrograms/mL. The IC50 (HT-29 (colon)) was 0.5 HT-29; micrograms/mL.

For `CC1(C)NC(=O)[C@H](CCCCCC(=O)[C@@H]2CO2)NC(=O)[C@H]2CCCN2C(=O)[C@H](Cc2ccccc2)NC1=O` [Chlamydocin] (cyclo([Aib]F[dP][Aoe])), the IC50 (histone deacetylase) is listed as 1.3 nM.

For `CCSC1SCC2C(=O)N(C)C3(CC3C)C(=O)OCC(NC(=O)c3nc4ccccc4cc3O)C(=O)NC(C)C(=O)N(C)C1C(=O)N(C)C1(CC1C)C(=O)OCC(NC(=O)c1nc3ccccc3cc1O)C(=O)NC(C)C(=O)N2C` (stereo not shown) [SW-163E], the IC50 (P388; read-out: Activity (IC50)) is given as 0.3 nM, the IC50 (A2780) is given as 0.2 nM and the IC50 (KB; read-out: Activity (IC50)) is given as 0.4 nM. The IC50 (HL-60) was 1.3 nM, the IC50 (colon) was 1.6 nM and the “Toxicity (in words)” value [4] was “low toxicity (mice”.
